Entries after “also recorded” stand apart in the source; their conditions may differ. Where two headings read alike, the source gives them in different places.
Assays:
[1] = test system: mitochondrial membrane potential; assay: MitoTracker biomarker (overall mitochondrial mass / mitochondrial membrane potential) in IBM patients treated with PBA; assay type: in vivo, human
Description: The mitochondrial tracker used to track treatment of IBM with PBA can include MitoTracker dyes that are cationic fluorophores that accumulate electrophoretically into mitochondria in response to the highly negative mitochondrial membrane potential. […] Thus, mitochondria retain MitoTracker dyes like MitoTracker Orange CMTMRos after loss of their membrane potential. Sec, Kholmukhamedov A, Schwartz J M, Lemasters J J. Isolated mitochondria infusion mitigates ischemia-reperfusion injury of the liver in rats: mitotracker probes and mitochondrial membrane potential. Shock. 2013 June; 39(6):543. doi:10.1097/SHK.0b013e318292300d. PMID: 23680774; PMCID: PMC3759289.
(§1) Safety and tolerability of PBA in IBM patients were studied, with a run-in period of 3 months without medication. Biomarkers were studied. […] We have previously assayed TDP-43 and its derivative, phosphorylated TDP-43 (pTDP-43) in peripheral blood platelets in our laboratory (Dr. Agbas). TDP43 positive cytoplasmic aggregates have been described in ALS motor neurons and IBM skeletal muscle tissue with significant up-regulation of TARDBP (the gene expresses TDP-43 protein) and SQTM1 (Sequestosome-1) gene expression.14 Therefore, we planned to measure blood-derived platelet total TDP-43 and pTDP-43 as surrogate biomarker for skeletal muscle TDP-43 profile of IBM patients.
The trend observed in the boxplots of MitoTracker data warranted further exploration with a post hoc analysis. A generalized linear mixed model was used to estimate mean values of MitoTracker at each timepoint. 10 of 11 subjects had measurements at all 3 timepoints. Time was used as a categorical value and correlation among an individual's repeated measurements was accounted for with a random effect for subject. The fixed effect, month, was not statistically significant (p=0.0724). […] The results from the model are exploratory.
For the secondary outcomes, the measurements at baseline, month-3, and month-7 would be reported using mean and standard deviation (or median and interquartile range for skewed measurements) along with a corresponding 95% confidence interval. These measurements would be visually compared using box plots to detect the presence of a trend over time by drawing a trend line on the means (or median). Due to the small sample size, this comparison would be done visually, and no formal statistical test would be done routinely but it would be considered to further study a trend.

[2] = test system: Annexin, MitoSox, TMRE, TDP-43; assay: Exploratory biomarkers: Annexin, MitoSox, TMRE, TDP-43; assay type: in vivo, human; conditions: FIGS. 7A-7B, 8A-8B, 9A-9B, 10A-10B
Description: as §1

[3] = test system: cultured human muscle fibers; conditions: Nogalska et al. 2014, cited from earlier work; for Aβ42 and Aβ42 oligomers / Muscle-fiber vacuolization / γ-secretase activity / Lysosomal dysfunction / lysosomal activity: cultured human muscle fibers with experimentally-impaired autophagy
[4] = test system: patients with inclusion body myositis; assay: Safety and tolerability of PBA in IBM patients (adverse event reporting, safety laboratory tests); assay type: in vivo, human; conditions: for Serious events not related to the study drug / Serious adverse events related to the study drug / Safety and tolerability / Safety laboratory tests (ALT, creatinine, creatine kinase, blood counts): IBM patients; for Serious adverse events related to the study drug: 3 gm twice daily for 3 months; for Safety and tolerability: 3 gm twice daily orally for 3 months; for Safety laboratory tests (ALT, creatinine, creatine kinase, blood counts): two subjects had mildly elevated liver enzymes at baseline
Method: In a study, PBA at a dose of 3 grams (gm) was administered twice daily in patients with inclusion body myositis. In this study, 10 patients received the daily doses of PBA for 3 months after run-up periods of 3 months. […] The study was conducted by monitoring biomarkers and biological indicators in the subjects. One of the biological indicators is mitochondrial membrane potential, and analyzing the biological indicator uses a mitochondrial tracker (e.g., MitoTracker) to monitor mitochondrial membrane potential. […] As such, the biomarkers, including a mitochondrial tracker, allow for monitoring the progress of treatment of IBM in the subject with PBA. Thus, the present invention can use PBA in human subjects to treat inclusion body myositis with a dose of 3 gm twice daily and monitoring biological indicators or other biomarkers to monitor progress of IBM in the subject. Safety and tolerability of PBA in IBM patients were studied, with a run-in period of 3 months without medication. Biomarkers were studied. […] We have previously assayed TDP-43 and its derivative, phosphorylated TDP-43 (pTDP-43) in peripheral blood platelets in our laboratory (Dr. Agbas). TDP43 positive cytoplasmic aggregates have been described in ALS motor neurons and IBM skeletal muscle tissue with significant up-regulation of TARDBP (the gene expresses TDP-43 protein) and SQTM1 (Sequestosome-1) gene expression.14 Therefore, we planned to measure blood-derived platelet total TDP-43 and pTDP-43 as surrogate biomarker for skeletal muscle TDP-43 profile of IBM patients. […] Secondary outcome measures included multiple strength and functional measures: manual muscle testing, timed up and go test (TUG), IBM functional rating scale (IBMFRS), and grip strength. These clinical outcome measures were commonly used in evaluating progression of IBM and in clinical trials of this disease.^18,19,20,21 In addition, safety laboratory tests and electrocardiogram would be monitored regularly. As mentioned above, the biomarkers would be repeated at the end of the treatment period. The PBA was administered orally at 3 gm doses twice a day. […] Mildly elevated liver enzyme reported in two subjects at baseline and before the treatment period. The most common adverse events which were considered related were GI symptoms (n=9). […] The safety lab tests for monitoring purposes include: Liver enzyme (ALT), renal function test (creatinine), muscle enzyme (creatine kinase) and blood counts (including WBC and platelets). For the primary outcome of safety, the frequency of Adverse Events (AEs) and Serious Adverse Events (SAEs) by grade, would be reported. This would be done for each follow-up visit as well as for all visits combined.

[5] = test system: patients with inclusion body myositis; assay: Secondary outcome measures: strength and functional measures (manual muscle testing, TUG, IBMFRS, grip strength); assay type: in vivo, human
Description: Primary outcome measures included adverse event reporting. Secondary outcome measures included multiple strength and functional measures: manual muscle testing, timed up and go test (TUG), IBM functional rating scale (IBMFRS), and grip strength. These clinical outcome measures were commonly used in evaluating progression of IBM and in clinical trials of this disease.^18,19,20,21 In addition, safety laboratory tests and electrocardiogram would be monitored regularly. As mentioned above, the biomarkers would be repeated at the end of the treatment period. For the secondary outcomes, the measurements at baseline, month-3, and month-7 would be reported using mean and standard deviation (or median and interquartile range for skewed measurements) along with a corresponding 95% confidence interval. These measurements would be visually compared using box plots to detect the presence of a trend over time by drawing a trend line on the means (or median). Due to the small sample size, this comparison would be done visually, and no formal statistical test would be done routinely but it would be considered to further study a trend.

[6] = lysosomal activity-inhibited CHMFs
[7] = AE considered possibly or probably related, 3 gm orally twice a day, 3 months
[8] = AE considered unrelated, at baseline before the treatment period
[9] = gastrointestinal AE considered possibly or probably related, 3 gm orally twice a day, 3 months

## phenylbutyrate [PBA]
[1]; at the end of the treatment period, 19299 at the baseline, 28823 at the beginning of the treatment period
  MitoTracker median: 8010
[1]; generalized linear mixed model, Month 3 reference, p 0.0385
  MitoTracker estimated coefficient (95% CI), Month 6: −21,344 (−41,402, −1,287)
[1]; generalized linear mixed model, after treatment vs months 0 and 3 combined
  MitoTracker estimated coefficient (95% CI), On treatment - Off treatment: 20,780 (3,091, 38,469)
[1]; treatment period vs run-in period
  MitoTracker (mitochondrial mass) change with treatment: statistically significant change in the mitochondria; also recorded: changes with treatment with PBA; also recorded: statistically significant change in MitoTracker (mitochondrial mass); also recorded: dropped at the end of the treatment period; also recorded: statistically significantly different from pre-treatment; also recorded: significant drop with treatment
[2]
  Change in exploratory biomarkers (Annexin, MitoSox, TMRE, TDP-43): no meaningful change in most exploratory biomarkers
[3]
  Aβ42 and Aβ42 oligomers: decreases Aβ42 and Aβ42 oligomers
  Muscle-fiber vacuolization: decreasing their vacuolization
  γ-secretase activity: decreases γ-secretase activity
[3]; [6]
  Cathepsins D and B activities: increased cathepsins D and B activities
  NBR1, p62 and LC3-II: decrease of NBR1, p62 and LC3-II
[4]; [7]
  Number of occurrences: Drowsiness: 1
  Number of occurrences: Gastrointestinal AEs: 9
  Number of occurrences: Hair Loss: 1
  Number of occurrences: Musculoskeletal Pain: 2
  Number of occurrences: Nasal Congestion: 1
  Number of occurrences: Tremor: 1
  Number of occurrences: Two Itchy Skin Lesions: 1
  Number of subjects: Drowsiness: 1
  Number of subjects: Gastrointestinal AEs: 9
  Number of subjects: Hair Loss: 1
  Number of subjects: Musculoskeletal Pain: 2
  Number of subjects: Nasal Congestion: 1
  Number of subjects: Tremor: 1
  Number of subjects: Two Itchy Skin Lesions: 1
[4]; AE considered possibly or probably related, 3 gm orally twice a day, 3 months, listed as study drug
  Number of subjects: Hair Loss: One subject had hair loss which was considered possibly related
[4]; AE considered unrelated
  Number of occurrences: Back Pain: 1
  Number of occurrences: Chills: 1
  Number of occurrences: Elevated White Blood Count: 1
  Number of occurrences: Elevated blood pressure: 2
  Number of occurrences: Falls: 9
  Number of occurrences: Headache: 1
  Number of occurrences: Low blood pressure: 1
  Number of occurrences: Numbness in the Legs: 1
  Number of occurrences: Right Bundle Branch Block: 1
  Number of occurrences: Urinary Urgency: 2
  Number of subjects: Back Pain: 1
  Number of subjects: Chills: 1
  Number of subjects: Elevated White Blood Count: 1
  Number of subjects: Elevated blood pressure: 2
  Number of subjects: Falls: 6
  Number of subjects: Headache: 1
  Number of subjects: Low blood pressure: 1
  Number of subjects: Numbness in the Legs: 1
  Number of subjects: Right Bundle Branch Block: 1
  Number of subjects: Urinary Urgency: 2
[4]; [8]
  Number of occurrences: Elevated liver enzymes: 2
  Number of subjects: Elevated liver enzymes: 2
[4]
  Serious events not related to the study drug: the only serious event reported (a fall) was related to the disease itself, not the study drug
  Serious adverse events related to the study drug: no serious adverse events related to the study drug were reported
  Safety and tolerability: safe and well-tolerated
  Safety laboratory tests (ALT, creatinine, creatine kinase, blood counts): indicates safety for the PBA administration
[4]; listed as study drug
  Serious adverse events related to the study drug: No study drug-related serious events were reported
  Safety and tolerability: well tolerated
  Serious events not related to the study drug: one serious event (a fall that required a hospital visit) that was not related to the study drug
  Safety laboratory tests (ALT, creatinine, creatine kinase, blood counts): No other significant laboratory changes were noted
[4]; listed as Phenylbutyrate
  Safety and tolerability: safe and well tolerated
[4]; [9]
  Number of occurrences: Constipation: 1
  Number of occurrences: Heartburn: 4
  Number of occurrences: Nausea: 2
  Number of occurrences: Oral Aphthous: 1
  Number of occurrences: Urgency: 1
  Number of subjects: Constipation: 1
  Number of subjects: Heartburn: 4
  Number of subjects: Nausea: 2
  Number of subjects: Oral Aphthous: 1
  Number of subjects: Urgency: 1
[4]; human, in vivo
  Number of occurrences: Strep. Throat Infection: 1
  Number of subjects: Strep. Throat Infection: 1
[5]; 3 months run-in, 3 months treatment
  IBMFRS change during the study: did not seem to change during the study
[5]; at the end of the treatment period, median 23 at baseline, 24 at the beginning of the treatment period
  IBMFRS median: 23
[5]; in vivo
  Strength evaluation of 24 muscles with accumulative total score, change: No meaningful change
  TUG (seconds) over the duration of the treatment, change: No meaningful change
[5]; short duration, small sample size
  Change in all clinical and most biological outcome measures: no meaningful changes in all clinical and most biological outcome measures

## O=C([O-])CCCc1ccccc1.[Na+] [NaPBA, Sodium phenylbutyrate]
[3]
  Aβ42 and Aβ42 oligomers: decreased Aβ42 and its oligomers
  Lysosomal dysfunction / lysosomal activity: improved lysosomal activity
  Muscle-fiber vacuolization: virtually prevented muscle-fiber vacuolization
  γ-secretase activity: decreased γ-secretase activity
[3]; listed as NaPB
  Lysosomal dysfunction / lysosomal activity: reverses lysosomal dysfunction
